Here are results for 1 substance from US8697376B2, “Synthetic protease substrates, assay methods using such substrates and kits for practicing the assay” (Lifesensors, INc., priority 2010, dated 2014).

In this assay the test system is DUBs immobilized on a Nexterion slide H. The assay can be described thus: Microarray-based assay: cleavage and label transfer to immobilized DUBs. The class given is biochemical. The note with it: 35 DUBs arrayed as triplicate spots; FIG. 5. How it is done:
Since one of the primary uses for the substrates of the invention is localization of active deubiquitylases immobilized in a microarray-type format, i.e. solid phase assay, each of the substrates was tested for its ability to be cleaved and subsequently transfer label to DUBs immobilized on a Nexterion slide H (Schott). Thirty-five (35) DUBs were arrayed as a series of triplicate spots on the slide (see Table 6 for a map of the array) Three identical arrays were constructed on each slide. Several features that were common amongst each array on a given slide and between slides are shown boxed in red and numbered 1-7. […] It should be noted that the enzymes (and antibodies) were coupled 1) at different concentrations and 2) by covalent attachment through surface exposed lysines.

As for ubiquitin-vinylsulfone, the “immobilized enzymes labeled (positive features) on the microarray” value is on record as “all of the immobilized proteins were labeled”.
